Assays:
Experiment in all cases: relative viability (nuclei count vs DMSO), 5 days (fraction); higher = more cells survive
EHT 1864 + Luminespib = compound: C1COCCN1CC2=CC(=O)C(=CO2)OCCCCCSC3=C4C=CC(=CC4=NC=C3)C(F)(F)F [EHT 1864] + CCNC(=O)c1noc(-c2cc(C(C)C)c(O)cc2O)c1-c1ccc(CN2CCOCC2)cc1 [Luminespib] (partner 0.01 µM)
Summary of the method: (§1)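 Lung cancer cell lines, seeded in 1536-well plates, were treated the following day by pin tool with a single drug or with five library-drug doses (not always all listed) in √10 steps on top of a fixed anchor-drug dose. Cells were fixed and nuclei stained in one step after 5 days, and nuclei were counted. Relative viability is the nuclei count for treated wells divided by that for vehicle wells, reported as medians of duplicate plates.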

EHT 1864 + Lapatinib = compound: C1COCCN1CC2=CC(=O)C(=CO2)OCCCCCSC3=C4C=CC(=CC4=NC=C3)C(F)(F)F [EHT 1864] + CS(=O)(=O)CCNCc1ccc(-c2ccc3ncnc(Nc4ccc(OCc5cccc(F)c5)c(Cl)c4)c3c2)o1 [Lapatinib] (partner 2 µM)
Summary of the method: as §1

EHT 1864 + Decitabine = compound: C1COCCN1CC2=CC(=O)C(=CO2)OCCCCCSC3=C4C=CC(=CC4=NC=C3)C(F)(F)F [EHT 1864] + Nc1ncn([C@H]2C[C@H](O)[C@@H](CO)O2)c(=O)n1 [Decitabine] (partner 2 µM)
Summary of the method: as §1

EHT 1864 + Olaparib = compound: C1COCCN1CC2=CC(=O)C(=CO2)OCCCCCSC3=C4C=CC(=CC4=NC=C3)C(F)(F)F [EHT 1864] + O=C(c1cc(Cc2n[nH]c(=O)c3ccccc23)ccc1F)N1CCN(C(=O)C2CC2)CC1 [Olaparib] (partner 8 µM)
Summary of the method: as §1

Cell Line	relative viability (EHT 1864 + Luminespib; first compound 0.04 µM)	relative viability (EHT 1864 + Luminespib; first compound 0.1265 µM)	relative viability (EHT 1864 + Luminespib; first compound 0.4 µM)	relative viability (EHT 1864 + Luminespib; first compound 1.265 µM)	relative viability (EHT 1864 + Luminespib; first compound 4 µM)	relative viability (EHT 1864 + Lapatinib; first compound 0.04 µM)	relative viability (EHT 1864 + Lapatinib; first compound 0.1265 µM)	relative viability (EHT 1864 + Lapatinib; first compound 0.4 µM)	relative viability (EHT 1864 + Lapatinib; first compound 1.265 µM)	relative viability (EHT 1864 + Lapatinib; first compound 4 µM)	relative viability (EHT 1864 + Decitabine; first compound 0.04 µM)	relative viability (EHT 1864 + Decitabine; first compound 0.1265 µM)	relative viability (EHT 1864 + Decitabine; first compound 0.4 µM)	relative viability (EHT 1864 + Decitabine; first compound 1.265 µM)	relative viability (EHT 1864 + Decitabine; first compound 4 µM)	relative viability (EHT 1864 + Olaparib; first compound 0.04 µM)	relative viability (EHT 1864 + Olaparib; first compound 0.1265 µM)	relative viability (EHT 1864 + Olaparib; first compound 0.4 µM)	relative viability (EHT 1864 + Olaparib; first compound 1.265 µM)	relative viability (EHT 1864 + Olaparib; first compound 4 µM)
NCI-H1755	0.618	0.3	0.601	0.42	0.401	1.08	0.866	1.04	0.998	1.05	0.803	0.685	0.702	0.707	0.755	0.912	0.817	0.822	0.817	0.829
NCI-H2228	0.143	0.145	0.182	0.193	0.0861	1.08	0.68	1.03	1.13	1.02						0.614	0.661	0.66		0.61
NCI-H2087	0.175		0.143	0.168	0.135	1.03	0.485	1.01	0.614	0.789	0.253		0.267	0.287	0.3	0.545		0.468	0.545	0.534
LU99A	0.186	0.242	0.229	0.215	0.233	1.02	0.64	0.873	1.17	0.949	0.843	0.757	0.827	0.903	0.872	0.26	0.262	0.25	0.284	0.274
NCI-H1355	0.711	0.652	0.691	0.654	0.699	1.02	0.819	0.889	1.02	1.04	0.391	0.326	0.355	0.369	0.328	0.718	0.657	0.772	0.727	0.706
NCI-H520	0.221	0.227	0.219	0.193	0.234	0.833	0.743	0.834	0.913	0.694	0.545	0.496	0.535	0.493	0.445	0.271	0.318	0.354	0.419	0.351
NCI-H661	0.951	0.838	0.877	0.77	0.565	0.429	0.488	0.511	0.429	0.503	0.609	0.527	0.581	0.576	0.514	0.799	0.685	0.684	0.606	0.567
NCI-H650	0.882	0.658	0.664	0.889	0.865	0.797		1.33	1.07	0.989	0.372	0.312	0.356	0.356	0.34	0.425	0.386	0.383	0.39	0.413
NCI-H647	0.196	0.213	0.126	0.102	0.111	0.856	0.842	0.923	0.957	1.14	0.32	0.288	0.311	0.453	0.404	0.493	0.503	0.539	0.312	0.613
201T	0.994	1.06	1.01	0.891	0.946	1.07	1	1.07	1.01	1.01	0.86	0.874	0.863	0.8	0.778	0.821	0.794	0.856	0.73	0.81
HCC-78						0.875	0.525	0.382	0.345	1.05	0.735	0.726	0.577	0.713	0.789	0.781	0.887	0.773	0.868	0.92
HCC-366						1.02		0.929	1.04	0.992	0.338	0.324	0.331	0.333	0.326	0.391	0.325	0.34	0.347	0.304
LCLC-103H	0.874	0.798	0.932	0.975	0.919						0.734	0.67	0.744	0.708	0.66	0.742	0.694	0.739	0.718	0.734
NCI-H1563	0.497	0.503	0.556	0.54	0.553	1.01	0.986	0.953	0.949	0.813										
EBC-1						0.222	0.225	0.194	0.19	0.238						0.74	0.689	0.671	0.696	0.574
Calu-6						1.03	0.933	1.03	1.04	0.857						0.615	0.563	0.594	0.507	0.502
